Test results from BindingDB's records for patent US11111270 (Sanford Burnham Prebys Medical Discovery Institute, 2021).

Target: T1, E3 ubiquitin-protein ligase XIAP [163-230]/[26-93] (Homo sapiens, UniProt P98170+P98170)
T1 construct: 163-230; 26-93
Assay: Biological Assay
Description: 5000 PPC-1 cells were plated and grown overnight. Compounds were plated and 4 hrs later, TRAIL was added to half of the plate while RPMI was added to the other half of the plate as a control. Plates were return to the incubator for 24 hrs. Plates were removed from the incubator and placed on the bench for 30 min and then 25 uL of Cell Titer Glo were added per well. Plates were placed on a rocker and then read on a luminometer. 5000 MDA-MB-231 cells were plated per well. Compound was added and 4 hrs later, TRAIL was added at 5 ng/mL; RPMI was added for a minus TRAIL control. Plates were incubated an additional 24 hrs, removed to the bench for 30 min, and then 25 uL of cell titer glo was added per well. Plates were placed on a rocker and read on a luminometer. Data were fit using PRISM.

T1 sequence (P98170 26-93): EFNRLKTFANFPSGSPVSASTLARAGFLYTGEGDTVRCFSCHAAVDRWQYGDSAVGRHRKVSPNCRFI
T1 sequence (P98170 163-230): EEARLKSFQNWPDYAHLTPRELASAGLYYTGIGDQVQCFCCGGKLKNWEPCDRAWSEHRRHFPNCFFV

## CN[C@@H](C)C(=O)N[C@H]1CCCNC2CCC(C(=O)N[C@@H]3CCCc4ccccc43)N2C1=O (stereo partly specified) [US11111270, Compound 16]
  Ki: in the range around 37.5 µM
